These results are taken from article PMC12028472, “Marine-Derived Yaequinolone Derivative CHNQD-02792 Suppresses Colorectal Cancer Cell Proliferation and Induces Apoptosis via MAPK Pathway Modulation” (Marine Drugs, 2025).

Each structure is given as a SMILES string. pIC50: −log10 of the molar value. Bounds are passed on as bounds.

For one assay, the system named is HT-29. Put plainly: MTT assay, HT-29 cells. In kind it is cell-based. To be noted: Homo sapiens, 72 h. How it is done:
(§1) Human colorectal adenocarcinoma cells HT-29, HCT-116, DLD-1, LS-174T, RKO, and LoVo, as well as mouse colorectal carcinoma cell CT-26, were purchased from the Chinese Academy of Sciences Shanghai Cell Bank.
(§2) Cells stored at −80 °C were rapidly thawed in a 37 °C water bath, centrifuged to collect, and resuspended in a complete medium for culturing in a 37 °C, 5% CO2 incubator. Then, they were rinsed twice with PBS, digested with trypsin, and resuspended in a complete medium after detachment. HT-29, HCT-116, DLD-1, and CT-26 cells were cultured in RPMI-1640 medium supplemented with 10% FBS and 1% penicillin-streptomycin. LS-174T cells were cultured in DMEM-H medium, LoVo in Ham’s F-12K medium, and RKO in MEM.
(§3) Cells in the logarithmic growth phase were seeded in 96-well plates at 4000 cells per well, adjusted based on growth rates, and incubated overnight at 37 °C with 5% CO2. Experimental wells were treated with yaequinolone derivatives at concentrations of 0.4, 2, 10, 20, and 50 μM, while control wells received equivalent dilutions of DMSO to minimize effects. Each group was prepared in five replicates and incubated for 72 h. After removing the drug-containing medium, 100 μL of MTT solution (5 mg/mL) was added to each well and incubated at 37 °C for 4 h. The solution was then aspirated, replaced with 200 μL of DMSO, incubated for 10 min at 37 °C, and shaken before measuring absorbance (OD) at 570 nm using a microplate reader. The tumor cell survival rate was calculated as follows: survival rate (%) = [(OD experimental group − OD blank group)/(OD control group − OD blank group)] × 100%. All experiments were conducted in triplicate.

Another assay has as its system CT-26. Put plainly: MTT assay, CT-26 cells. To be noted: Mus musculus, CT26, 72 h. The assay is classed as cell-based. How it is done:
as §1, §2, §3
Background: Tetrazolium dyes change colour on reduction, which living cells bring about.

For the next assay, the system named is RKO. Put plainly: MTT assay, RKO cells. The assay is classed as cell-based. To be noted: Homo sapiens, 72 h. How it is done: as §1, §2, §3
A further assay has as its system LoVo. Put plainly: MTT assay, LoVo cells. The assay is classed as cell-based. To be noted: Homo sapiens, 72 h. Here is the method: as §1, §2, §3
A further assay relates to HCT-116. Kind of assay: MTT assay, HCT-116 cells. In kind it is cell-based. To be noted: Homo sapiens, 72 h. Here is the method: as §1, §2, §3
Another assay concerns DLD-1. Kind of assay: MTT assay, DLD-1 cells. In kind it is cell-based. To be noted: Homo sapiens, 72 h. Here is the method:
as §1, §2, §3

The subject of another assay is LS-174T. Kind of assay: MTT assay, LS-174T cells. The assay is classed as cell-based. To be noted: Homo sapiens, LS174T, 72 h. Here is the method:
as §1, §2, §3

The test system of a further assay is RAW264.7 cells. Kind of assay: Inhibition of RAW264.7 cells (normal cells vs cancer cells). In kind it is cell-based. To be noted: Mus musculus. An excerpt: Therefore, to verify the difference between CHNQD-02792 on normal cells and cancer cells, we examined the inhibition of CHNQD-02792 on RAW264.7 cells. […] The inhibition of HT-29 cell colony formation increased with higher concentrations of CHNQD-02792.

In assay [1] the test system is HT-29 cells. Kind of assay: Plate colony formation assay. In kind it is cell-based, human. To be noted: 9 μM, 14 days. Here is the method: Cells in the logarithmic growth phase were seeded at 1000 per well in 6-well plates and incubated overnight at 37 °C with 5% CO2. CHNQD-02792 (2.3, 4.5, and 9 μM) was added to the experimental group, while the control group received an equal dilution of DMSO. The medium color was monitored regularly, and the medium was replaced simultaneously in both groups. After 14 days, clonal clusters (approximately 50 cells) were formed. The cells were washed with PBS, fixed with 4% paraformaldehyde for 1 h, stained with crystal violet for 30 min, washed again with PBS, dried, photographed, and analyzed using Image J software (v 1.8.0.) to count colonies. The cell proliferation rate was calculated by comparing the experimental group with the control group treated with DMSO.

Assay [2] has as its system HT-29 cells. Put plainly: Cell cycle assay (PI, flow cytometry). In kind it is cell-based, human. To be noted: highest concentration, 48 h, control 16.42%. How it is done:
Cells in the logarithmic growth phase were seeded at 350,000 cells per well in 6-well plates and incubated overnight at 37 °C with 5% CO2. CHNQD-02792 (2.3, 4.5, 9 μM) was added to the experimental group, while an equal dilution of DMSO was added to the control group. After 48 h, cells were collected, centrifuged at 300× g for 5 min at 4 °C, and resuspended in 1 mL of ice-cold PBS. This step was repeated, and the supernatant was discarded. The cells were then resuspended in 300 μL of PBS, and 700 μL of pre-cooled anhydrous ethanol was added dropwise for fixation at 4 °C overnight. Within 12–24 h, cells were centrifuged at 1000× g for 5 min, and the supernatant was discarded. The cells were washed with 1 mL of pre-cooled PBS, centrifuged again, and resuspended in 500 μL of PBS. RNase A and PI were then added to each tube, […]. The cells were incubated at 4 °C with RNase A and PI in the dark for 30 min. Data were collected using a flow cytometer (488 nm laser excitation, 620/29 nm filter), and results were analyzed using FlowJo software (v.10.8.1).
For orientation: In flow cytometry, cells or beads pass a laser one at a time.

Assay [3] concerns HT-29 cells. Kind of assay: Apoptosis assay (Annexin V-FITC/PI flow cytometry). The assay is classed as cell-based, human. Here is the method:
Cells in the logarithmic growth phase were seeded at 600,000 cells per well in 6-well plates and incubated overnight at 37 °C in a 5% CO2 incubator. CHNQD-02792 (2.3, 4.5, 9 μM) was added to the experimental group, while the control group received an equal dilution of DMSO. After 48 h, cells were collected, centrifuged at 300× g for 5 min, and washed once with PBS. The cells were gently resuspended and counted. Take 1–5 × 10^5 resuspended cells, centrifuge at 300× g for 5 min, and discard the supernatant. The cells were washed once with PBS, centrifuged again, and the supernatant was discarded. Then, 500 μL of 1× diluted Annexin V Binding Buffer was added to resuspend the cells. Add 5 μL of Annexin V-FITC and 5 μL of PI (50 μg/mL) to the cell suspension. After gently vortexing, incubate the samples at room temperature in the dark for 15–20 min. Immediately analyze the samples using a flow cytometer. The results were analyzed using Novoexpress software (v.1.6.2).

In the next assay the test system is Cyclin B1. Kind of assay: Western blot, Cyclin B1 expression in HT-29 cells. To be noted: HT-29, increasing concentrations (2.3, 4.5, 9 μM). In kind it is cell-based, human. Here is the method: (§4) Cells in the logarithmic growth phase were seeded at 600,000 cells per well in 6-well plates and incubated overnight at 37 °C with 5% CO2. CHNQD-02792 (2.3, 4.5, and 9 μM) was added to the experimental group, while an equivalent dilution of DMSO was added to the control group. After 24 h of treatment, the cells were collected from the incubator. The cells were washed twice with pre-cooled PBS, and the proteins were extracted using ice-cold RIPA lysis buffer (RIPA-PMSF, 99:1, v/v). Adherent cells were scraped off the Petri dish with a pre-cooled plastic scraper. Protein concentrations were measured using a BCA kit. Protein samples were mixed with 5× loading buffer, boiled in a metal bath for 6 min, and stored at −20 °C. Proteins of different molecular weights were separated by gel electrophoresis and transferred onto PVDF membranes using wet transfer. The membrane was blocked with 5% skimmed milk powder for 2 h, followed by incubation with the primary antibody overnight at 4 °C. After three washes with TBST (10 min each), the membrane was incubated with the secondary antibody at room temperature for 1 h. It was then washed three times with TBST (10 min each) and analyzed using a gel imaging system with a high-sensitivity ECL luminescent solution.
(In western blotting, separated proteins are transferred to a membrane and probed.)

Another assay concerns CDK1. Put plainly: Western blot, CDK1 expression in HT-29 cells. The assay is classed as cell-based, human. To be noted: HT-29, increasing concentrations (2.3, 4.5, 9 μM). Here is the method: as §4
The test system of the next assay is Caspase-3. Kind of assay: Western blot, Caspase-3 expression in HT-29 cells. In kind it is cell-based, human. To be noted: HT-29, increasing concentrations (2.3, 4.5, 9 μM). Here is the method:
as §4

A further assay has as its system Bcl-2. Put plainly: Western blot, Bcl-2 expression in HT-29 cells. In kind it is cell-based, human. To be noted: HT-29, increasing concentrations (2.3, 4.5, 9 μM). Here is the method: as §4
The test system of a further assay is Bax. Put plainly: Western blot, Bax expression in HT-29 cells. The assay is classed as cell-based, human. To be noted: HT-29, increasing concentrations (2.3, 4.5, 9 μM). Here is the method: as §4
Another assay relates to ERK. Put plainly: Western blot, ERK phosphorylation in HT-29 cells. The assay is classed as cell-based, human. To be noted: HT-29, Western blot. Here is the method: as §4
Another assay deals with JNK. Kind of assay: Western blot, JNK phosphorylation in HT-29 cells. In kind it is cell-based, human. To be noted: HT-29, Western blot. How it is done: as §4
Assay [4] concerns LPS-induced RAW264.7 cells. More on the design: method as in PMID 36758306. To be noted: 10 nM; cited from earlier work.
Assay [5] has as its system LPS-induced RAW264.7 cells. More on the design: method as in PMID 36758306. To be noted: 50 nM; cited from earlier work.

Regarding `O=c1[nH]cc(F)c(=O)[nH]1` [5-fluorouracil, reference compound], the pIC50 with HT-29 is 4.81.
For the molecule `COc1ccc([C@]2(O)c3c(ccc4c3O[C@](C)(CCC=C(C)C)C=C4)N(Cc3cccc(Br)c3)C(=O)[C@H]2OC)cc1` [Compound 4], the pIC50 with CT-26 was below 4.30; with RKO it was 4.32; in the assay on LoVo, below 4.30; with HT-29, below 4.30; in the assay with HCT-116, below 4.30; in the assay with DLD-1 it was below 4.30. Further, the pIC50 in the assay with LS-174T was below 4.30.
On to `COc1ccc([C@]2(O)c3c(ccc4c3O[C@@](C)(CCC=C(C)C)C=C4)N(Cc3cccc(Br)c3)C(=O)[C@H]2OC)cc1` [Compound 7], for which the pIC50 in the assay with CT-26 is below 4.30; in the assay on RKO, 4.66; in the assay with LoVo it was 4.60; in the assay on HT-29, below 4.30; with HCT-116 it was below 4.30; in the assay with DLD-1, below 4.30. This molecule gave a pIC50 in the assay on LS-174T below 4.30.
On to `CO[C@@H]1C(=O)Nc2ccc3c(c2[C@@]1(O)c1cccc(Br)c1)O[C@@](C)(CCC=C(C)C)C=C3` [Compound 12], for which the pIC50 was 4.58 in the assay with CT-26; 4.43 with RKO; below 4.30 with LoVo; 4.37 with HT-29; 4.59 with HCT-116; 4.94 with DLD-1. In the assay on LS-174T, this molecule gave a pIC50 of 5.11.
Turning to `CO[C@@H]1C(=O)Nc2ccc3c(c2[C@@]1(O)c1cccc(Br)c1)O[C@](C)(CCC=C(C)C)C=C3` [Compound 13], the pIC50 in the assay on CT-26 was below 4.30; in the assay on RKO, 4.55; in the assay with LoVo it was 4.55; in the assay on HT-29, 5.35; in the assay on HCT-116, 4.30; in the assay on DLD-1 it was below 4.30. The negative-log IC50 (pIC50) in the assay with LS-174T was 4.61; in the assay on RAW264.7 cells, 4.57. Besides, the “growth of HT-29 cells, plate cloning assay” value in the assay on HT-29 cells [1] is reported as “completely inhibited”. For the same molecule, the “proportion of cells in the G2/M phase” value in the assay with HT-29 cells [2] is listed as 31.78%. Besides, in the assay with HT-29 cells [3] (9.0 μM, 48 h, HT-29, Annexin V-FITC/PI, control 5.31%), the “Q4 (early apoptotic cells)” value amounted to 20.23%. In addition, in the assay with HT-29 cells [3] (48 h of treatment, HT-29, control 6.81%), the “proportion of apoptotic cells” value is 26.10%. Further, the “Cyclin B1 protein expression level” value in the assay on Cyclin B1 was “decreased”. Besides, in the assay with CDK1, the “CDK1 protein expression level” value is given as “decreased”. The Caspase-3 protein expression result in the assay with Caspase-3 is recorded as “significantly increased”. For the same molecule, the Bcl-2 protein expression result in the assay on Bcl-2 was “markedly decreased”. Besides, the Bax protein expression entry in the assay on Bax is recorded as “increased”. Also, the “phosphorylation of ERK” value with ERK is listed as “inhibited”. In the assay on JNK, the “phosphorylation of JNK” value is “increased”. Moreover, the NO release result in assay [4] is recorded as “significantly inhibiting”. In addition, in assay [5], the IL-6 level result is “significantly inhibiting”.

By pIC50 is commonly meant the IC50 on a negative log10 scale, so that one unit is a factor of ten. A high value points to a small IC50.
